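Cells were grown in 96-well plates and exposed to each compound for 48 hours at five concentrations; endpoints were interpolated linearly between bracketing concentrations, or set to the highest concentration if not reached. Definition used: TGI = concentration required for complete inhibition of growth.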 Where only a bound is given, the exact number is not on record here.

Test in all cases: NCI anticancer screen, dose series, 48 h
The test system of test [1] is A549 NSCLC.
For test [2], the system named is DMS 273 small cell lung.
The test system of test [3] is HCT-116 colon.
Test [4] relates to HL-60(TB) leukemia.
Test [5] deals with KM20L2 colon.
Test [6] has as its system M19-MEL melanoma.
In test [7] the test system is RXF-631 renal.
Test [8] concerns SNB-19 CNS.
In test [9] the test system is HS 578T breast.
Test [10] deals with PC-3 prostate.
Test [11] concerns T-47D breast.

In the case of `COC(=O)C1C=NNC1C(=O)OC` (stereo not given), the TGI in test [1], in test [2], in test [3], in test [4], in test [5] and in [6] was over 100 µM in each case. In addition, the TGI in test [7] and in test [8] was over 100 µM throughout.
On to `C/C(=N\N=C(\[Se])N(C)C)c1ccccn1`, for which the TGI in [1] was determined as 13.5 µM; in [2], 5.29 µM; in [3] it was 14.2 µM; in test [4], 0.343 µM; in test [9], 40.6 µM; in test [5], 12.6 µM. Also, the TGI in test [6] worked out at 5.02 µM; in test [10], 13.9 µM; in test [7], 74.1 µM; in test [8], 15.9 µM; in test [11] it was 32.3 µM.
In the case of `CCOC(=O)c1oc2ccc([N+](=O)[O-])c3c2c1CCC3`, the TGI in test [1] is over 100 µM; in [2], over 100 µM; in test [3] it was over 100 µM; in test [4], over 100 µM; in test [9], over 85 µM; in test [5], over 100 µM. In addition, the TGI in [6] was over 100 µM; in test [10] it was over 100 µM; in test [7] it was over 100 µM; in test [8], over 89.6 µM; in test [11] it was over 31.6 µM.
`Clc1ccc2nc(-c3ccccc3)nc(Cl)c2c1`: the TGI in test [1] was over 100 µM; in [2], over 100 µM; in test [3], over 100 µM; in [4] it was 31.1 µM; in test [5], over 100 µM; in test [6] it was over 100 µM. Besides, the TGI in test [7] and in test [8] was over 100 µM throughout.
Consider `CCCCCCCCCCCCCCCC(=O)OCC1OC(OC)C2NP(=O)(N(CCCl)CCCl)OC1C2O` (stereo not given), for which the TGI in test [1] was 39.9 µM; in [2], 5.09 µM; in test [3], 11.5 µM; in [4] it was 4.48 µM; in test [5], 46.7 µM; in [6], over 75.3 µM. Further, the TGI in test [10] amounted to 18.9 µM; in [7], 25.7 µM; in [8] it was 65.6 µM.
Regarding `O=[N+]([O-])c1ccccc1C=NC12CC3CC(CC(C3)C1)C2`, the TGI in test [1] was over 100 µM; in test [2], over 100 µM; in test [3], over 100 µM; in test [4] it was 57.1 µM; in test [5], over 100 µM; in test [6], over 100 µM. The TGI in test [7] and in test [8] was over 100 µM throughout.
For the molecule `COc1cccc2c1C(=O)c1c(O)c3c(c(O)c1C2=O)C[C@@](O)(C(=O)CO)CC3OC1CC(O)C(O)C(C)O1` (stereo not given in full), the TGI in [1] is 3.99 µM; in test [2] it was 0.4 µM; in test [3], 0.572 µM; in [4], 0.55 µM; in [5], 6.28 µM; in test [6], 1.96 µM. The TGI in test [10] came out at 2.39 µM; in test [7], 21.2 µM; in test [8], 2.93 µM; in test [11], 5.44 µM.
For the molecule `COc1ccc2c(c1)CC1c3c(ccc(OC)c3O)CC2N1C` (stereo not given), the TGI was over 100 µM in test [1]; 45.2 µM in [2]; 47.3 µM in test [3]; 40.3 µM in [4]; over 70 µM in [5]; 56.9 µM in test [6]. For the same molecule, the TGI in test [7] is 47.1 µM; in [8], over 100 µM.
For the molecule `O=C(CC1(O)C(=O)Nc2ccccc21)c1ccc(O)cc1` (stereo not given), the TGI in [1], in test [2], in [3], in [4], in test [5] and in [6] was over 100 µM each time. The TGI in [7] and in [8] was over 100 µM throughout.
As for `C=C1C2CC(OC(C)=O)C3(C)C(c4ccoc4)OC(=O)[C@@H](O)[C@]13OC1C[C@H](OC(C)=O)C(C)(C)[C@H](CC(=O)OC)[C@]12C` (stereo not given in full), the TGI in test [1], in test [2], in [3], in test [4], in [5] and in test [6] was over 100 µM in each case. For the same molecule, the TGI in [7] and in test [8] was over 100 µM in each case.
As to `CCOC(=O)C1=C(C)N(NC(N)=O)C(C)(O)C12CCOC2=O` (stereo not given), the TGI in test [1], in [2], in test [3], in [4], in [5] and in [6] was over 100 µM throughout. In addition, the TGI in [7] and in test [8] was over 100 µM in each case.
Turning to `CCOC(=N)CC(=O)Nc1cccc(Cl)c1`, the TGI in test [1], in [2], in [3], in test [4], in [5] and in [6] was over 100 µM throughout. Besides, the TGI in [7] and in test [8] was over 100 µM each time.

These data come from PubChem BioAssay (NCI).
